Values of other authors in patent publication US20080168569A1, “Non-invasive methods and related compositions for identifying compounds that modify in vivo aggregations of disease-related polypeptides” (priority 2004, published 2008).

Tested on: truncated DRPLA proteins that contain an expanded-polyglutamine domain
Conditions: in vitro; transglutaminase inhibitors

CN(C)c1cccc2c(S(=O)(=O)NCCCCCN)cccc12 [monodansyl cadaverine]
formation of cellular aggregates of truncated DRPLA proteins: inhibit the formation of cellular aggregates

NCCSSCCN [cystamine]
formation of cellular aggregates of truncated DRPLA proteins: inhibit the formation of cellular aggregates
